What is called melting point is the temperature, or range, at which the solid turns liquid. Usually IC50 stands for the point on the concentration scale where inhibition reaches its midpoint.

Where a name gives a salt, the structure may show the parent alone. Read-outs that look alike come from different tables or passages of the source.

The target of data set [1] is HIV-1 Reverse Transcriptase (Human immunodeficiency virus type 1 group M subtype B, UniProt P03366). Briefly: HIV-1 Reverse Transcriptase Assay (RNA-dependent DNA polymerase activity, SPA). Format: biochemical. Conditions: HIV-RT enzyme 1-3 nM, 30° C. for 30 min, 10% DMSO. Here is the method: HIV-1 Reverse Transcriptase Assay
RNA-dependent DNA polymerase activity was measured using a biotinylated primer oligonucleotide and tritiated dNTP substrate. Newly synthesized DNA was quantified by capturing the biotinylated primer molecules on streptavidin coated Scintillation Proximity Assay (SPA) beads (Amersham). The sequences of the polymerase assay substrate were: 18nt DNA primer, 5′-Biotin/GTC CCT GTT CGG GCG CCA-3′; 47nt RNA template, 5′-GGGUCUCUCUGGUUAGACCACUCUAGCAGUGGCGCCCGAACAGGGAC-3′. The biotinylated DNA primer was obtained from the Integrated DNA Technologies Inc. and the RNA template was synthesized by Dharmacon. The DNA polymerase assay (final volume 50 μl) contained 32 nM biotinylated DNA primer, 64 nM RNA substrate, dGTP, dCTP, dTTP (each at 5 μM), 103 nM [^3H]-dATP (specific activity=[…]), in 45 mM Tris-HCl, pH 8.0, 45 mM NaCl, 2.7 mM Mg(CH3COO)2, 0.045% Triton X-100 w/v, 0.9 mM EDTA. The reactions contained 5 ul of serial compound dilutions in 100% DMSO for IC50 determination and the final concentrations of DMSO were 10%. Reactions were initiated by the addition of 30 μl of the HIV-RT enzyme (final concentrations of 1-3 nM). Protein concentrations were adjusted to provide linear product formation for at least 30 min of incubation. […] The beads were left to settle overnight and the SPA signals were counted in a 96-well top counter-NXT (Packard). […]

Data set [2] has as its system HXB2-strain of HIV in MT4 cells. Briefly: Antiviral assay: protection of HIV-infected MT4 cells from cell death (MTT). Format: cell-based. Conditions: read-out: Antiviral Assay IC50. Here is the method: Antiviral Assay Method Anti-HIV antiviral activity was assessed using an adaptation of the method of Pawls et al. (J. Virol Methods 1988 20:309-321). The method is based on the ability of compounds to protect HIV-infected T lymphoblastoid cells (MT4 cells) from cell-death mediated by the infection. The endpoint of the assay was calculated as the concentration of compound at which the cell viability of the culture was preserved by 50% (‘50% inhibitory concentration’, IC50). The cell viability of a culture was determined by the uptake of soluble, yellow 3-[4,5-dimethylthiazol-2-yl]-2,5-diphenyltetrazolium bromide (MTT) and its reduction to a purple insoluble formazan salt. After solubilization, spectrophotometric methods were employed to measure the amount of formazan product. MT4 cells were prepared to be in logarithmic-phase growth and a total of 2×10^6 cells infected with the HXB2-strain of HIV at a multiplicity of 0.0001 infectious units of virus per cell in a total volume of between 200-500 microliters. […] When the formazan deposit was fully solubilized by further mixing, the absorbance (OD) of the cultures was measured at 540 nm and 690 nm wavelength (690 nm readings were used as blanks for artifacts between wells). The percent protection for each treated culture was then calculated from the equation: [formula] […]

In turn, `N#Cc1cc(Cl)cc(C(=O)c2c(CNc3n[nH]c4ncccc34)ccc(Br)c2F)c1` [Compound I-9] showed a melting point of 214 to 215 °C.
The compound `N#Cc1cc(Cl)cc(C(=O)c2cc(Cl)ccc2OCc2n[nH]c3ncccc23)c1` [Compound I-2, 3-Chloro-5-[5-chloro-2-(1H-pyrazolo[3,4-b]pyridin-3-ylmethoxy)-benzoyl]-benzonitrile] registered a melting point of 194.3 to 195.9 °C. The compound also gave an IC50 in data set [1] of 24.4 nM. Also, the IC50 in data set [2] (Human immunodeficiency virus 1, 120 h, MT4 cells infected with HXB2-strain of HIV, 5 days, MTT viability) was determined as 3.7 nM.
In the case of `N#Cc1cc(Cl)cc(Oc2c(Cl)ccc(OCc3n[nH]c4ncccc34)c2F)c1` [Compound I-3, 3-Chloro-5-[6-chloro-2-fluoro-3-(1H-pyrazolo[3,4-b]pyridin-3-ylmethoxy)-phenoxy]-benzonitrile, trifluoroacetate salt], the IC50 is 11 nM in data set [1] and 8 nM in data set [2] (Human immunodeficiency virus 1, HXB2, MT4, 120 h).

The values above are taken from US20080293664A1, “Non-nucleoside reverse transcriptase inhibitors” (Roche Palo Alto LLC, priority 2007, published 2008).
